In assay [1] the target is T1, wild-type (WT) BlaC (Mycobacterium tuberculosis, UniProt P9WKD3).
T1 construct: 6xHis tag with TEV cleavage site (N); made in house; host or cells: E. coli BL21 (DE3) pLysS
T1 sequence (P9WKD3 35-307): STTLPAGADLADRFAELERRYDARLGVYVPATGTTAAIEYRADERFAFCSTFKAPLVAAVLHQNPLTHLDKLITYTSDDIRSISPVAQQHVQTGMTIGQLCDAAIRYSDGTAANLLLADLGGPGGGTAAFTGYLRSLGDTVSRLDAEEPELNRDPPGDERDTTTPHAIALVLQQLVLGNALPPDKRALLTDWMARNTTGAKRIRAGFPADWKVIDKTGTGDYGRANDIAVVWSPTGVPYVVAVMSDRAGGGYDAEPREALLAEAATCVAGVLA
Format: biochemical. Particulars: pH 6.4.

The target in assay [2] is T1, wild-type (WT) BlaC. More on the design: method as in Radojković, Chikunova, et al., [2025]. To be noted: 100 mM NaPi, pH 6.4, 25°C, ref Radojković, Chikunova, et al., [2025]; cited from earlier work.
The subject of assay [3] is E. coli KA797 cells producing BlaC I105G. Format: cell-based.
For assay [4], the system named is E. coli KA797 cells producing BlaC I105Y. Format: cell-based.
For assay [5], the system named is E. coli KA797 cells producing BlaC S130G. The format is cell-based.
Assay [6] concerns E. coli KA797 cells producing BlaC G132N. Format: cell-based.
For assay [7], the system named is E. coli KA797 cells producing BlaC I105G-G132N. Format: cell-based.
The test system of assay [8] is E. coli KA797 cells producing wild-type BlaC. Description: Minimum inhibitory concentration determination. The format is cell-based. To be noted: Escherichia coli. The procedure:
(§1) The MIC was determined for E. coli KA797 cells carrying various pUK21‐blaC plasmids with the lac promoter and tat‐signal peptide upstream of the blaC gene (Figure S7) (Radojković, van Ingen, et al., [2025]). Overnight cultures of E. coli were inoculated into fresh LB medium with 50 μg/mL kanamycin and incubated at 37°C until OD600 reached 2. […] The concentration of the selection antibiotic was increased in 2‐fold increments. The plate was incubated for 16 h at 37°C in a Bioscreen C Pro plate reader with continuous shaking, and the OD600 was recorded every 15 min. The MIC was defined as the concentration of the selection antibiotic at which no increase in OD600 was observed.

In assay [9] the test system is E. coli KA797 cells, pUK21 vector without blaC gene. Description: Minimum inhibitory concentration determination. The format is cell-based. Particulars: Escherichia coli, 16 h, 37°C, read-out: MIC carbenicillin. The protocol:
as §1

Assay [10] concerns E. coli KA797 cells producing BlaC I105Y-S130G. Format: cell-based.
Assay [11] concerns the target T2, wild-type BlaC (Mycobacterium tuberculosis, UniProt P9WKD3).
T2 construct: 6xHis tag with TEV cleavage site (N); made in house; host or cells: E. coli BL21 (DE3) pLysS
T2 sequence (P9WKD3 35-307): T1 sequence (P9WKD3 35-307)
Format: biochemical.

The mark [12] stands for this setting: in combination with carbenicillin at 50 μg/mL.

The source of these data is paper PMC12514841 (Protein Science : A Publication of the Protein Society, 2025).

In brackets after ≈: the same amount, converted by molar mass. Several values for one entry are separate records, joined by “and”; a condition that tells them apart may be missing. Equal values may be shown once. Read-outs that look alike come from different tables or passages of the source.

As for `CC1(C)S[C@@H]2[C@H](NC(=O)[C@H](N)c3ccccc3)C(=O)N2[C@H]1C(=O)O` [Ampicillin, ampicillin], in [1], the KMapp is recorded as 46 ± 12 µM, the “k cat /K M ^app relative to the wild-type” value was 1, the kcat was found to be 9 ± 1 s⁻¹ and the kcat/KMapp stood at 210000 ± 10000 M⁻¹ s⁻¹. In addition, the “kcat/KMapp relative to the wild-type” value in assay [1] is 1. In addition, in [2], the “K M ^app” value was 68 ± 3 µM; the k cat was 14 ± 2 s⁻¹; the “k cat/K M ^app” value was 0.21 ± 0.01 μM^−1 s^−1 and 0.21 ± 0.01 ^a μM^−1 s^−1.
For the molecule `CC1(C)S[C@@H]2[C@H](NC(=O)C(C(=O)O)c3ccccc3)C(=O)N2[C@H]1C(=O)O` (stereo partly shown) [Carbenicillin, carbenicillin], the MIC carbenicillin in assay [3] (16 h, 37°C) came out at 800 µg/mL (≈ 2110 µM); in assay [4] (16 h, 37°C) it was 6400 µg/mL (≈ 16900 µM); in assay [5] (16 h, 37°C) it was 100 µg/mL (≈ 264 µM); in assay [6] (16 h, 37°C), 400 µg/mL (≈ 1060 µM); in [7] (16 h, 37°C) it was 800 µg/mL (≈ 2110 µM); in assay [10] (16 h, 37°C) it was 800 µg/mL (≈ 2110 µM). Further, in assay [1], the “k cat /K M ^app relative to the wild-type” value came to 1. Also, in [6], the “MIC times lower than the wild-type” value stood at 2 times. Moreover, in [2], the “K M ^app” value is 5.5 ± 0.7 µM. Also, the k cat in assay [2] is 0.51 ± 0.02 s⁻¹. Also, in [2], the “k cat/K M ^app” value was 0.09 ± 0.01 ^a μM^−1 s^−1. In addition, the MIC in assay [8] (16 h, 37°C, read-out: MIC carbenicillin) came to 800 µg/mL (≈ 2110 µM); in [9], 10 µg/mL (≈ 26.4 µM).
`O=C(O)[C@H]1/C(=C/CO)O[C@@H]2CC(=O)N21` [Clavulanic acid, clavulanic acid]: the MIC clavulanic acid in assay [3] (setting [12]) worked out at 4 µg/mL; in assay [4] (setting [12]), 2 µg/mL; in assay [5] (setting [12]), 4 µg/mL; in assay [6] (setting [12]) it was 1 µg/mL; in [7] (setting [12]), 16 µg/mL; in [10] (setting [12]), 32 µg/mL. In [8] (read-out: MIC clavulanic acid, in combination with carbenicillin at 50 μg/mL), the MIC is 1 µg/mL. For the same molecule, in assay [11], the “incubation time after which the enzyme reaches its original activity again” value worked out at 2 h. The “time to full inhibition of the enzyme” value in assay [11] is on record as < 5 min.
Regarding `O=C(Cc1cccs1)N[C@@H]1C(=O)N2C(C(=O)O)=C(/C=C/c3ccc([N+](=O)[O-])cc3[N+](=O)[O-])CS[C@H]12` [Nitrocefin, nitrocefin], in assay [1], the “K M ^app” value came out at 180 ± 70 µM, the k cat was 90 ± 20 s⁻¹, the “k cat /K M ^app relative to the wild-type” value worked out at 1 and the “k cat/K M ^app” value was 0.5 ± 0.2 ^a μM^−1 s^−1.
